This note sets out measurements from ChEMBL document CHEMBL5096238 (J Med Chem, 2022).

In data set [1] the target is Hepatocyte growth factor receptor (Homo sapiens, UniProt P08581). Briefly: Inhibition of N-terminal His/SUMO tagged wild type human c-Met (1038 to 1346 residues) transfected in Escherichia coli using Tyr06 peptide as substrate incubated for 1 hr in presence of ATP by FRET-based Z'-Lyte assay.
The test system of data set [2] is Hs746T. As to the kind of experiment: cells. The note with it: Homo sapiens, 120 h.
The nature of data set [3]: Apparent permeability across apical to basolateral side in human Caco-2 cells at 10 uM incubated for 120 mins by LC-MS/MS analysis. The data set is classed as ADME, cell-based.
For data set [4], the target named is T1, Tyrosine-protein kinase receptor UFO (Homo sapiens, UniProt P30530).
T1 sequence (P30530 whole entry): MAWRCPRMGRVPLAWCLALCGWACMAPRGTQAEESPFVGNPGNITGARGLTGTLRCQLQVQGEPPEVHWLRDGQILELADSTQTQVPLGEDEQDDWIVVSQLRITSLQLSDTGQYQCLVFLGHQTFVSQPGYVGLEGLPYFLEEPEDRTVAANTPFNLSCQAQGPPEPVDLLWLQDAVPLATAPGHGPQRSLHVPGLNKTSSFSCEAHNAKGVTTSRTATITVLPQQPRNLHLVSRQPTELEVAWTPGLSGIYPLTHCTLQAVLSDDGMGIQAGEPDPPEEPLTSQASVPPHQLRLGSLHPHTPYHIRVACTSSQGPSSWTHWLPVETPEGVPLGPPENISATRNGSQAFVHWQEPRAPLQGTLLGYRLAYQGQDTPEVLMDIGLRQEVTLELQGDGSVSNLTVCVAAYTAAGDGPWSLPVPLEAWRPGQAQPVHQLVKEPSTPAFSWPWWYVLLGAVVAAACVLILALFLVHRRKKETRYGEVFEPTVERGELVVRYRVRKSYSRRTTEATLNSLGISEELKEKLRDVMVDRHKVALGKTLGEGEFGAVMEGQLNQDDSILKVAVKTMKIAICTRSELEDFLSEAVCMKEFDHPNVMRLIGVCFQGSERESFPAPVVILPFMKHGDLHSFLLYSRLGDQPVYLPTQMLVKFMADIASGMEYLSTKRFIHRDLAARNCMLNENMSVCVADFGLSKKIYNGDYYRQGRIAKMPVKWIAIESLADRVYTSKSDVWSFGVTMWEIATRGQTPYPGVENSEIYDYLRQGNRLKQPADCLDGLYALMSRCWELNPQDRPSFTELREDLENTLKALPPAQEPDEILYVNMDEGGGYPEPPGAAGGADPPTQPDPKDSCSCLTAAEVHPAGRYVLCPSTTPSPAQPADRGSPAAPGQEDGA
As to the kind of experiment: Inhibition of AXL (unknown origin).

Broadly, the IC50 is the concentration that gives 50% inhibition. By Papp A→B is commonly meant how fast a substance crosses the layer from the apical side.

Sequence of Hepatocyte growth factor receptor (P08581 whole entry, the tested form may be a part): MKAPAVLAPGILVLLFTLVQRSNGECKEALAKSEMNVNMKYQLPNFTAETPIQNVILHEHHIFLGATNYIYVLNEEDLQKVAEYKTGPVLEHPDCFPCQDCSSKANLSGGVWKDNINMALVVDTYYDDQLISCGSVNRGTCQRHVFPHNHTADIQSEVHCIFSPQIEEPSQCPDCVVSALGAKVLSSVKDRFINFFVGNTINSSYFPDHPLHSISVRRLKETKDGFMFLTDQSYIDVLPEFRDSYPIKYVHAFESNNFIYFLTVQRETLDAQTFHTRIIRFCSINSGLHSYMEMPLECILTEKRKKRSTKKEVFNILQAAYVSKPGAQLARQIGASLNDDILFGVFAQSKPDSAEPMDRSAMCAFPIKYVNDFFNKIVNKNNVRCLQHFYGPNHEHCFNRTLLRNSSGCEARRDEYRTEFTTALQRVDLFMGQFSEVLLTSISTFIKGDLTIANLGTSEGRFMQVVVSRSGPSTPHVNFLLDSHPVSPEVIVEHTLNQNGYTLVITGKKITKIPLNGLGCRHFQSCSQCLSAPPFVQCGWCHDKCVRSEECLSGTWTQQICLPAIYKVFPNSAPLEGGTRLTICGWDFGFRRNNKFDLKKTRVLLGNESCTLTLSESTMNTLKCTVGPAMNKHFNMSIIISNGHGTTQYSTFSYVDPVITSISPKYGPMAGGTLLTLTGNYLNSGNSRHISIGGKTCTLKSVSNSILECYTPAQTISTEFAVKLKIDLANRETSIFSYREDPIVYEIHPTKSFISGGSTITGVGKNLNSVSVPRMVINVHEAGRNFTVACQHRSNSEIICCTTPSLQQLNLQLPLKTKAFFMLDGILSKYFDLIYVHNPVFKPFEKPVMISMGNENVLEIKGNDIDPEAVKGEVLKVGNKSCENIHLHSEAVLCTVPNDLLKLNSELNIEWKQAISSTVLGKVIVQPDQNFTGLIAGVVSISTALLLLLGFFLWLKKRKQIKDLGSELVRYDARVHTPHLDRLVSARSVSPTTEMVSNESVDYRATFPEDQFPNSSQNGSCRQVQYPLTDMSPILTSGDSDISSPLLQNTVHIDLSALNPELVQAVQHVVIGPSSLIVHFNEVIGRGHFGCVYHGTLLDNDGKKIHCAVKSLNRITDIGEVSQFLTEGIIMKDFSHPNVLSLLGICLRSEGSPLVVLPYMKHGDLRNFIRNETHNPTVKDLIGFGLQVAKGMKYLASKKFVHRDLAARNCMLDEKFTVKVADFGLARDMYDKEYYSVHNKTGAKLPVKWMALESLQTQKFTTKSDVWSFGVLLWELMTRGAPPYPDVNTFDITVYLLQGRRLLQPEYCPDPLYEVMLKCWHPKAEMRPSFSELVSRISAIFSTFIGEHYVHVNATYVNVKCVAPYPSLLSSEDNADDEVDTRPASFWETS

As for `COC(=O)c1ccc(-c2ccc(=O)n(CCc3ccc4ncc(-c5cnn(C)c5)cc4c3)n2)cc1C(F)(F)F`, the results for the IC50 in data set [1] and in data set [2] were 4 nM and 102 nM, respectively.

As for `O=c1ccc(-c2ccccc2)nn1Cc1ccc2ncc(N3CCOCC3)cc2c1`, the IC50 in data set [1] worked out at 171 nM.

Regarding `CNC(=O)c1ccc(-c2ccc(=O)n(CCc3ccc4ncc(NCCN5CCCCC5)cc4c3)n2)cc1C(F)(F)F`, the concentration for half-maximal inhibition (IC50) in data set [1] was found to be 26.4 nM; in data set [2], 428 nM.

In the case of `Cn1cc(-c2cnc3ccc(CCn4nc(-c5cccc(N)c5)ccc4=O)cc3c2)cn1`, the IC50 in data set [1] is 8.7 nM; in data set [2] it was 623 nM.

As for `Cn1cc(-c2cnc3ccc(CCn4nc(-c5cccc(C(F)(F)F)c5)ccc4=O)cc3c2)cn1`, the IC50 in data set [1] came out at 5.4 nM; in data set [2], 112 nM.

For `CNC(=O)c1ccc(-c2ccc(=O)n(CCc3ccc4ncc(-c5cnn(CCOC)c5)cc4c3)n2)cc1C(F)(F)F`, the 50% inhibitory concentration (IC50) was determined as 7.4 nM in data set [1] and 45.9 nM in data set [2].

Turning to `Cn1cc(-c2cnc3ccc(Cn4nc(-c5ccccc5)ccc4=O)cc3c2)cn1`, the IC50 in data set [1] is 138 nM.

With `COC(=O)c1ccc(-c2ccc(=O)n(CCc3ccc4ncc(-c5cnn(C)c5)cc4c3)n2)cc1`, the IC50 in data set [1] came to 7.5 nM; in data set [2], 1900 nM.

For `CNC(=O)c1ccc(-c2ccc(=O)n(NC(=O)c3ccc4ncc(-c5cnn(C)c5)cc4c3)n2)cc1C(F)(F)F`, the IC50 in data set [1] was determined as 2280 nM; in data set [2], 10000 nM.

Regarding `CNC(=O)c1ccc(-c2ccc(=O)n(CCOc3ccc4ncc(-c5cnn(C)c5)cc4c3)n2)cc1C(F)(F)F`, the IC50 in data set [1] was 78.6 nM; in data set [2], 447 nM.

Take `O=C1NCCCCCn2cc(cn2)-c2cnc3ccc(cc3c2)CCn2nc(ccc2=O)-c2ccc1c(C(F)(F)F)c2`: the IC50 in data set [1] is 3.3 nM; in data set [2], 163 nM. For the same compound, in data set [3], the apparent permeability from apical to basolateral (Papp A→B) at 2 h, 10 µM amounted to 0.29 ×10⁻⁶ cm/s.

Turning to `Cn1cc(-c2cnc3ccc(CCn4nc(-c5cccc(Br)c5)ccc4=O)cc3c2)cn1`, the IC50 in data set [1] stood at 6.8 nM; in data set [2] it was 436 nM.

Regarding `O=c1ccc(-c2ccccc2)nn1CCc1ccc2ncccc2c1`, in data set [1], the IC50 amounted to 2000 nM.

As to `CNC(=O)c1ccc(-c2ccc(=O)n(/C=C/c3ccc4ncc(-c5cnn(C)c5)cc4c3)n2)cc1C(F)(F)F`, the results for the IC50 in data set [1] and in data set [2] were 35.6 nM and 3010 nM, respectively.

On to `CNC(=O)c1ccc(-c2ccc(=O)n(CCc3ccc4ncc(N5CCN(C)CC5)cc4c3)n2)cc1C(F)(F)F`, for which the IC50 in data set [1] was 10.7 nM; in data set [2], 199 nM.

In the case of `CNC(=O)c1ccc(-c2ccc(=O)n(CCc3ccc4ncc(-c5cn[nH]c5)cc4c3)n2)cc1C(F)(F)F`, the IC50 is 6.7 nM in data set [1] and 106 nM in data set [2].

For the compound `Cn1cc(-c2cnc3ccc(CCn4nc(-c5ccccc5F)ccc4=O)cc3c2)cn1`, the values for the IC50 in data set [1] and in data set [2] were 25.9 nM and 638 nM, respectively.

In the case of `Cn1cc(-c2ccc(-c3ccc(=O)n(Cc4ccc5ncccc5c4)n3)cc2)cn1`, in data set [1], the IC50 is over 10000 nM.

Regarding `CNC(=O)c1ccc(-c2ccc(=O)n(CCc3ccc4ncc(-c5cnn(C)c5)cc4c3)n2)cc1`, the 50% inhibitory concentration (IC50) in data set [1] worked out at 4 nM; in data set [2], 137 nM.

Take `Cn1cc(-c2cnc3ccc(CCn4nc(-c5ccc(F)cc5)ccc4=O)cc3c2)cn1`: the IC50 was found to be 18.3 nM in data set [1] and 488 nM in data set [2].

For the compound `CNC(=O)c1ccc(-c2ccc(=O)n(CCc3ccc4ncc(N5CCC(N6CCOCC6)CC5)cc4c3)n2)cc1C(F)(F)F`, the results for the IC50 in data set [1] and in data set [2] were 13.2 nM and 93.4 nM, respectively.

As to `CNC(=O)c1ccc(-c2ccc(=O)n(CCc3ccc4ncc(N5CCC(N6CCN(C)CC6)CC5)cc4c3)n2)cc1C(F)(F)F`, the IC50 in data set [1] is 13.9 nM; in data set [2], 47.8 nM.

For `Cc1ccc(-c2ccc(=O)n(CCc3ccc4ncc(-c5cnn(C)c5)cc4c3)n2)cc1`, the IC50 in data set [1] was 8.2 nM; in data set [2], 281 nM.

Take `O=c1ccc(-c2ccccc2)nn1Cc1ccc2ncccc2c1`: the IC50 in data set [1] is over 10000 nM.

With `CNC(=O)c1ccc(-c2ccc(=O)n(CC(F)(F)c3ccc4ncc(-c5cnn(C)c5)cc4c3)n2)cc1C(F)(F)F`, the IC50 in data set [1] is 9.9 nM; in data set [2], 38.5 nM.

Take `CNC(=O)c1ccc(-c2ccc(=O)n(CCc3ccc4ncc(-c5cnn(CCN6CCOCC6)c5)cc4c3)n2)cc1C(F)(F)F`: the IC50 amounted to 5 nM in data set [1] and 187 nM in data set [2].

Take `CNC(=O)c1ccc(-c2ccc(=O)n(CCc3ccc4ncc(N5CCC(N6CCCC6)CC5)cc4c3)n2)cc1C(F)(F)F`: the concentration for half-maximal inhibition (IC50) in data set [1] turned out to be 14.3 nM; in data set [2] it was 22.8 nM.

As to `Cn1cc(-c2cnc3ccc(CCn4nc(-c5cc(F)c(F)c(F)c5)ccc4=O)cc3c2)cn1`, the IC50 in data set [1] was determined as 7.6 nM; in data set [2] it was 228 nM.

For the compound `Cn1cc(-c2cnc3ccc(CCn4nc(-c5cccc(OC(F)(F)F)c5)ccc4=O)cc3c2)cn1`, the values for the IC50 in data set [1] and in data set [2] were 20.4 nM and 1440 nM, respectively.

Regarding `CNC(=O)c1ccc(-c2ccc(=O)n(CCc3ccc4ncc(-c5cnn(C)c5)cc4c3)n2)cc1C(F)(F)F`, the IC50 in data set [1] turned out to be 4.8 nM; in data set [2], 11.9 nM.

Consider `Cn1cc(-c2cnc3ccc(CCn4nc(-c5cccc(Cl)c5)ccc4=O)cc3c2)cn1`, for which the IC50 in data set [1] was found to be 4.9 nM; in data set [2] it was 303 nM.

In the case of `CNC(=O)c1ccc(-c2ccc(=O)n(CCc3ccc4ncc(-c5cnn(C6CCNCC6)c5)cc4c3)n2)cc1C(F)(F)F`, the values for the concentration for half-maximal inhibition (IC50) in data set [1] and in data set [2] were 4.2 nM and 20.1 nM, respectively.

Consider `Cn1cc(-c2cnc3ccc(CCn4nc(-c5ccccc5)ccc4=O)cc3c2)cn1`, for which the half-maximal inhibitory concentration (IC50) in data set [1] was 14.9 nM.

Regarding `Cn1cc(-c2cnc3ccc(CCn4nc(-c5ccc(F)c(F)c5)ccc4=O)cc3c2)cn1`, the IC50 was determined as 13.2 nM in data set [1] and 708 nM in data set [2].

`Cn1cc(-c2cnc3ccc(CCn4nc(-c5cccc(C#N)c5)ccc4=O)cc3c2)cn1`: the IC50 is 10.5 nM in data set [1] and 130 nM in data set [2].

As to `O=c1ccc(-c2ccccc2)nn1CCc1ccc2ncc(N3CCOCC3)cc2c1`, the IC50 in data set [1] is 41.6 nM.

On to `Cn1cc(-c2cnc3ccc(CCn4nc(-c5cccc(F)c5)ccc4=O)cc3c2)cn1`, for which the IC50 came out at 10.6 nM in data set [1] and 397 nM in data set [2].

Consider `CNC(=O)c1ccc(-c2ccc(=O)n(CCc3ccc4ncc(N5CC6CNCC6C5)cc4c3)n2)cc1C(F)(F)F` (centres undefined), for which the figures for the IC50 in data set [1] and in data set [2] were 11.4 nM and 212 nM, respectively.

As to `Cn1cc(-c2cnc3ccc(CCn4nc(-c5cccc([N+](=O)[O-])c5)ccc4=O)cc3c2)cn1`, the IC50 in data set [1] is 15.1 nM; in data set [2] it was 331 nM.

As for `Cn1cc(-c2cnc3ccc(CCn4nc(-c5ccc(C(=O)O)cc5)ccc4=O)cc3c2)cn1`, the IC50 in data set [1] turned out to be 10.1 nM; in data set [2] it was 2500 nM.

For the compound `O=c1ccc(-c2ccc(N3CCOCC3)cc2)nn1CCc1ccc2ncccc2c1`, the concentration for half-maximal inhibition (IC50) in data set [1] is 208 nM.

Take `CNC(=O)c1ccc(-c2ccc(=O)n(CCc3ccc4ncc(-c5cnn(C6CCOCC6)c5)cc4c3)n2)cc1C(F)(F)F`: the half-inhibitory concentration (IC50) in data set [1] came out at 5.4 nM; in data set [4], 164 nM.

For `Cn1cc(-c2cnc3ccc(CCn4nc(-c5ccc(C(=O)O)c(C(F)(F)F)c5)ccc4=O)cc3c2)cn1`, the figures for the half-inhibitory concentration (IC50) in data set [1] and in data set [2] were 5.8 nM and 4300 nM, respectively.

In the case of `CNC(=O)c1ccc(-c2ccc(=O)n(CCc3ccc4ncc(-c5cnn(CCO)c5)cc4c3)n2)cc1C(F)(F)F`, the IC50 in data set [1] was determined as 2.8 nM; in data set [2] it was 115 nM.

`COc1cccc(-c2ccc(=O)n(CCc3ccc4ncc(-c5cnn(C)c5)cc4c3)n2)c1`: the IC50 in data set [1] worked out at 14.7 nM; in data set [2], 1360 nM.

For the compound `Cn1cc(-c2ccc(-c3ccc(=O)n(CCc4ccc5ncccc5c4)n3)cc2)cn1`, in data set [1], the IC50 worked out at 663 nM.

In the case of `Cc1cccc(-c2ccc(=O)n(CCc3ccc4ncc(-c5cnn(C)c5)cc4c3)n2)c1`, the IC50 in data set [1] worked out at 8.9 nM; in data set [2], 328 nM.

Consider `CNC(=O)c1ccc(-c2ccc(=O)n(CCc3ccc4ncc(NCCN5CCOCC5)cc4c3)n2)cc1C(F)(F)F`, for which the IC50 was 18.4 nM in data set [1] and 375 nM in data set [2].

As to `O=c1ccc(-c2ccc(N3CCOCC3)cc2)nn1Cc1ccc2ncccc2c1`, in data set [1], the half-inhibitory concentration (IC50) is over 10000 nM.
